Earlier results as cited in patent US20110075702A1, “THERMAL SENSING EQUIPMENT AND THERMAL SENSING PROCESS” (JOHNSON CONTROLS TECHNOLOGY COMPANY, priority 2007, published 2011).

How the values were obtained:
[1] = @ 20° C. (68° F.)

## CC(=O)OCC(C)OC(C)=O (stereo not shown) [THERMAL FLUID #2, propylene glycol diacetate]
[1]
  Solubility in Water: 77 mg/mL
NFPA fire diamond Flammability Value
  NFPA Fire: 2
NFPA fire diamond Health Value
  NFPA Health: 1
NFPA fire diamond Reactivity Value
  NFPA Reactivity: 0
